Experimental findings from patent US10052306B2 (LUC THERAPEUTICS, INC., priority 2013, dated 2018) are described below.

The target of assay [1] is NR1/NR2B (Homo sapiens (Human), UniProt Q13224). Put plainly: Cell assay: FDSS Ca2+ influx inhibition in HEK293 cells expressing NR1/NR2B.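 Note: Fluo-8 Ca2+ signal read on Hamamatsu FDSS 6000 after glutamate, glycine and Ca2+ challenge following 10 min compound preincubation, end/baseline fluorescence ratio compared with MK801 control.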 Conditions: read-out: NR2B NAM IC50.
The target in assay [2] is NR1/NR2B (Homo sapiens (Human), UniProt Q05586+Q13224). The description is as above. The following applies: Binned Activity.
Where [3] appears, read: HEK293 cells expressing NR1/NR2B, Ca2+ influx.
Setting [4] is: HEK293 cells expressing NR1/NR2B, Ca2+ influx, binned NR2B NAM IC50.

The structures appear in SMILES notation. Where two headings read alike, the source gives them in different places.

NR1/NR2B (Homo sapiens (Human), UniProt Q05586+Q13224), sequence (Q13224 27-1484, other chains not shown): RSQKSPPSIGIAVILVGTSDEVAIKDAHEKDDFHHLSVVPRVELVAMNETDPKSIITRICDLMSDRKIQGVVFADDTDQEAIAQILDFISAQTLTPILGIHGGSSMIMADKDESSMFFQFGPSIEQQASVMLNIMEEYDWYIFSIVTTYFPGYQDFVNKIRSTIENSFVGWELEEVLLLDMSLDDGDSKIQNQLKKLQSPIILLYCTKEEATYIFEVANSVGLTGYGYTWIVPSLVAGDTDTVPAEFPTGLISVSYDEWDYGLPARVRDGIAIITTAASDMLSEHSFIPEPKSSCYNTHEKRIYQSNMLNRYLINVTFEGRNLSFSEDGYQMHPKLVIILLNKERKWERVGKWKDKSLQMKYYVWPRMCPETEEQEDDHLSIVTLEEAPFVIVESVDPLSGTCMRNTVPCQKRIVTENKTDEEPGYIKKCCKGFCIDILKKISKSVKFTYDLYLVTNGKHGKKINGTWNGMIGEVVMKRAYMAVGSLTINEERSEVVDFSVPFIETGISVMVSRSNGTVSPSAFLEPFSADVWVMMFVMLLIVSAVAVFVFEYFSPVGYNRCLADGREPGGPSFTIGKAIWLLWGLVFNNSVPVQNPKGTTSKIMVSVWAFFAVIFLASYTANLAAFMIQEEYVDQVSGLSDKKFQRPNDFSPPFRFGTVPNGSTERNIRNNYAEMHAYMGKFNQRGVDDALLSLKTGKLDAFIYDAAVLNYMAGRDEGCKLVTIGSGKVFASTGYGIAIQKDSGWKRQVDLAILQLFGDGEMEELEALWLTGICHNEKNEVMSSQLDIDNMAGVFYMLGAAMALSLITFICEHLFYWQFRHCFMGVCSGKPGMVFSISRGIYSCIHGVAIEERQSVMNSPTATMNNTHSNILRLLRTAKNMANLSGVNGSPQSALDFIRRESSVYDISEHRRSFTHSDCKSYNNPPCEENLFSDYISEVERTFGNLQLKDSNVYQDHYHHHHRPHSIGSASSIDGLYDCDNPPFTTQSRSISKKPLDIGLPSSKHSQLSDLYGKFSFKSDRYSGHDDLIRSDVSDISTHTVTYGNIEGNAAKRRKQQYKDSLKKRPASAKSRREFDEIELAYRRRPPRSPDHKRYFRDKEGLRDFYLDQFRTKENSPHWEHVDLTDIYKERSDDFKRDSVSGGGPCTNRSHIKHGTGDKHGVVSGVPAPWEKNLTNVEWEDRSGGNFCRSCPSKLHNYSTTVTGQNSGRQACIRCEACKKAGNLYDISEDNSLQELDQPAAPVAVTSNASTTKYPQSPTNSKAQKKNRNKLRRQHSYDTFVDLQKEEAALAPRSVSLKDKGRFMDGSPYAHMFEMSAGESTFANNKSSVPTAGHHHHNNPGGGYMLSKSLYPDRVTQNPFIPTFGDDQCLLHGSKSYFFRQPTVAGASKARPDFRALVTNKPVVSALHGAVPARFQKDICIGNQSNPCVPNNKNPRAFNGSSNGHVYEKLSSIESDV
NR1/NR2B (Homo sapiens (Human), UniProt Q13224), sequence (Q13224 27-1484, other chains not shown): as above

With `O=C(CN1C[C@@H]2C[C@@](O)(Cc3ccccc3)C[C@@H]2C1)c1ccc(O)nc1` [Example 178, 2-[(3aR,5R,6aS)-5-benzyl-5-hydroxy-octahydrocyclopenta[c]pyrrol-2-yl]-1-(6-hydroxypyridin-3-yl)ethan-1-one], the IC50 at NR1/NR2B [1] (setting [3]) was 10 µM; against NR1/NR2B [2] (setting [4]), more than 10 µM.

Consider `COc1cccc(C[C@]2(O)C[C@H]3CN(CC(=O)c4ccc(O)c(F)n4)C[C@H]3C2)c1` [Example 200, 1-(6-fluoro-5-hydroxypyridin-2-yl)-2-((3aR,5r,6aS)-5-hydroxy-5-(3-methoxy-benzyl)hexahydro-cyclopenta[c]pyrrol-2(1H)-yl)ethanone], for which the figures for the IC50 at NR1/NR2B [1] (setting [3]) and against NR1/NR2B [2] (setting [4]) were 10 µM and more than 10 µM, respectively.

With `CC(C(=O)c1ccc(O)cc1)N1C[C@H]2C[C@@H](CCc3ccccc3)C[C@H]2C1` (stereo partly drawn) [Example 325, 1-(4-hydroxyphenyl)-2-((3aR,5r,6aS)-5-phenethylhexa-hydrocyclo-penta[c]pyrrol-2(1H)-yl)propan-1-one], the IC50 on NR1/NR2B [1] is 0.192 µM; at NR1/NR2B [2], 0.1 to 1 µM.

In the case of `CC(C)(C)c1ccc([C@]2(O)C[C@H]3CN(C(=O)Nc4cccc(C#N)c4)C[C@H]3C2)cc1` [Example 52], the IC50 was 10 µM at NR1/NR2B [1] (setting [3]) and more than 10 µM against NR1/NR2B [2] (setting [4]).

As for `Cc1cc(F)ccc1C[C@]1(O)C[C@H]2CN(CC(=O)c3ccc(O)cc3)C[C@H]2C1` [Example 250, 2-((3aR,5r,6aS)-5-(4-fluoro-2-methylbenzyl)-5-hydroxyhexahydrocyclo-penta[c]pyrrol-2(1H)-yl)-1-(4-hydroxyphenyl)ethanone], the IC50 on NR1/NR2B [1] (setting [3]) is 0.137 µM; on NR1/NR2B [2] (setting [4]), 0.1 to 1 µM.

For the molecule `O=C(CN1C[C@@H]2C[C@@](O)(Cc3ccccc3)C[C@@H]2C1)c1cccc(-c2ccc(F)cc2)c1` [Example 274, 2-((3aR,5r,6aS)-5-benzyl-5-hydroxyhexahydrocyclo-penta[c]pyrrol-2(1H)-yl)-1-(4′-fluoro-[1,1′-biphenyl]-3-yl)ethanone], the IC50 at NR1/NR2B [1] (setting [3]) is 10 µM; at NR1/NR2B [2] (setting [4]) it was more than 10 µM.

As for `O=C(CN1C[C@@H]2C[C@@](O)(Cc3ccccc3)C[C@@H]2C1)c1cccc(-c2cccc(F)c2)c1` [Example 271, 2-((3aR,5r,6aS)-5-benzyl-5-hydroxyhexahydrocyclo-penta[c]pyrrol-2(1H)-yl)-1-(3′-fluoro-[1,1′-biphenyl]-3-yl)ethanone], the IC50 at NR1/NR2B [1] (setting [3]) is 10 µM; against NR1/NR2B [2] (setting [4]), more than 10 µM.

As for `COc1cccc(NC(=O)N2C[C@@H]3C[C@@](O)(c4cccc(OC)c4)C[C@@H]3C2)c1` [Example 18, 5-hydroxy-N,5-bis(3-methoxyphenyl)-octahydrocyclopenta[c] pyrrole-2-carboxamide], the figures for the IC50 on NR1/NR2B [1] (setting [3]) and on NR1/NR2B [2] (setting [4]) were 10 µM and more than 10 µM, respectively.

On to `O=C(CN1C[C@H]2C[C@@H](c3ccccc3)C[C@H]2C1)c1ccc(O)cc1` [Example 114, 1-(4-hydroxyphenyl)-2-(5-phenylhexahydrocyclo-penta[c]pyrrol-2(1H)-yl)ethanone], for which the 50% inhibitory concentration (IC50) at NR1/NR2B [1] (setting [3]) is 0.232 µM; against NR1/NR2B [2] (setting [4]) it was 0.1 to 1 µM.

In the case of `O=C(CN1C[C@@H]2C[C@@](O)(CC3CC3)C[C@@H]2C1)c1ccc(O)cn1` [Example 207, 2-((3aR,5r,6aS)-5-(cyclopropylmethyl)-5-hydroxyhexahydrocyclo-penta[c]pyrrol-2(1H)-yl)-1-(5-hydroxypyridin-2-yl)ethanone], the IC50 on NR1/NR2B [1] (setting [3]) was 10 µM; against NR1/NR2B [2] (setting [4]), more than 10 µM.

`O=C(CN1C[C@@H]2C[C@@](O)(Cc3ccccn3)C[C@@H]2C1)c1ccc(O)cc1` [Example 231, 2-((3aR,5r,6aS)-5-hydroxy-5-(pyridin-2-ylmethyl)hexahydro-cyclopenta[c]pyrrol-2(1H)-yl)-1-(4-hydroxyphenyl)ethanone]: the IC50 at NR1/NR2B [1] (setting [3]) is 0.965 µM; against NR1/NR2B [2] (setting [4]), 0.1 to 1 µM.

On to `O=C(CN1C[C@@H]2C[C@@](O)(Cc3ccccc3)C[C@@H]2C1)c1ccc(O)cc1` [Example 130, 2-((3aR,5r,6aS)-5-benzyl-5-hydroxyhexahydrocyclo-penta[c]pyrrol-2(1H)-yl)-1-(4-hydroxyphenyl)ethanone], for which the IC50 is 0.0441 µM on NR1/NR2B [1] (setting [3]) and less than 0.1 µM against NR1/NR2B [2] (setting [4]).

As to `CC(C)(C)c1ccc([C@]2(O)C[C@H]3CN(C(=O)Nc4cccc(Cl)c4)C[C@H]3C2)cc1` [Example 56, 5-(4-tert-butylphenyl)-N-(3-chlorophenyl)-5-hydroxy-octahydrocyclopenta[c] pyrrole-2-carboxamide], the IC50 on NR1/NR2B [1] (setting [3]) was 10 µM; against NR1/NR2B [2] (setting [4]), more than 10 µM.

With `O=C(CN1C[C@@H]2C[C@@](O)(Cc3ccccc3)C[C@@H]2C1)c1cc(F)c(O)c(F)c1` [Example 159, 2-((3aR,5r,6aS)-5-benzyl-5-hydroxyhexahydrocyclo-penta[c]pyrrol-2(1H)-yl)-1-(3,5-difluoro-4-hydroxyphenyl)ethanone], the IC50 on NR1/NR2B [1] (setting [3]) is 11.6 µM; against NR1/NR2B [2] (setting [4]), more than 10 µM.

As for `Cc1cc(F)ccc1C[C@]1(O)C[C@H]2CN(CC(=O)c3ccc(O)cn3)C[C@H]2C1` [Example 242, 2-((3aR,5r,6aS)-5-(4-fluoro-2-methylbenzyl)-5-hydroxyhexahydrocyclo-penta[c]pyrrol-2(1H)-yl)-1-(5-hydroxypyridin-2-yl)ethanone], the values for the IC50 on NR1/NR2B [1] (setting [3]) and against NR1/NR2B [2] (setting [4]) were 2.71 µM and 1 to 10 µM, respectively.

As to `O=C(CN1C[C@@H]2CN(Cc3ccccc3)C[C@@H]2C1)c1ccc(O)c(F)c1` [Example 340, 2-(5-benzylhexahydropyrrolo [3,4-c]pyrrol-2(1H)-yl)-1-(3-fluoro-4-hydroxyphenyl)ethanone], the IC50 at NR1/NR2B [1] (setting [3]) was 10 µM; at NR1/NR2B [2] (setting [4]) it was more than 10 µM.

On to `O=C(CN1C[C@@H]2C[C@@](O)(Cc3cccc(F)c3F)C[C@@H]2C1)c1ccc(O)cc1` [Example 249, 2-((3aR,5r,6aS)-5-(2,3-difluorobenzyl)-5-hydroxyhexahydrocyclo-penta[c]pyrrol-2(1H)-yl)-1-(4-hydroxyphenyl)ethanone], for which the IC50 was 0.11 µM at NR1/NR2B [1] (setting [3]) and 0.1 to 1 µM against NR1/NR2B [2] (setting [4]).

Regarding `Cc1cccc(N2C[C@@H]3C[C@@](O)(c4ccccc4C)C[C@@H]3C2)n1` [Example 86, 5-(2-methylphenyl)-2-(6-methylpyridin-2-yl)-octahydrocyclopenta[c] pyrrol-5-ol], the IC50 is 10 µM at NR1/NR2B [1] (setting [3]) and more than 10 µM on NR1/NR2B [2] (setting [4]).

For `COc1cccc(-c2cccc(C(=O)CN3C[C@@H]4C[C@@](O)(Cc5ccccc5)C[C@@H]4C3)c2)c1` [Example 273, 2-((3aR,5r,6aS)-5-benzyl-5-hydroxyhexahydrocyclo-penta[c]pyrrol-2(1H)-yl)-1-(3′-methoxy-[1,1′-biphenyl]-3-yl)ethanone], the IC50 at NR1/NR2B [1] (setting [3]) is 10 µM; at NR1/NR2B [2] (setting [4]), more than 10 µM.

Turning to `COc1ccc(NC(=O)N2C[C@@H]3C[C@@](O)(c4ccccc4)C[C@@H]3C2)cc1` [Example 1, 5-hydroxy-N-(4-methoxyphenyl)-5-phenylhexahydrocyclopenta[c]pyrrole-2(1H)-carboxamide], the IC50 at NR1/NR2B [1] (setting [3]) was 10 µM; on NR1/NR2B [2] (setting [4]), more than 10 µM.

As to `COc1ccccc1CNC(=O)N1C[C@H]2C[C@@H](c3ccccc3)C[C@H]2C1` [Example 112, N-[(2-methoxyphenyl)methyl]-5-phenyl-octahydrocyclopenta[c] pyrrole-2-carboxamide], the IC50 was 10 µM at NR1/NR2B [1] (setting [3]) and more than 10 µM on NR1/NR2B [2] (setting [4]).

With `COc1ccc(NC(=O)N2C[C@@H]3C[C@@](O)(Cc4ccccc4)C[C@@H]3C2)cc1` [Example 126, (3aR,5r,6aS)-5-benzyl-5-hydroxy-N-(4-methoxy-phenyl)hexahydro-cyclopenta[c]pyrrole-2(1H)-carboxamide], the IC50 on NR1/NR2B [1] (setting [3]) was 10 µM; on NR1/NR2B [2] (setting [4]), more than 10 µM.

Regarding `O=C(CN1C[C@@H]2C[C@@](O)(Cc3ccccc3)C[C@@H]2C1)c1ccc(-c2ccccn2)cc1` [Example 266, 2-((3aR,5r,6aS)-5-benzyl-5-hydroxyhexahydrocyclo-prenta[c]pyrrol-2(1H)-yl)-1-(4-(pyridin-2-yl)phenyl)ethanone], the figures for the IC50 on NR1/NR2B [1] (setting [3]) and on NR1/NR2B [2] (setting [4]) were 10 µM and more than 10 µM, respectively.

On to `Oc1ccc(C(O)CCN2C[C@@H]3C[C@@](O)(c4ccccc4)C[C@@H]3C2)cc1` (some centres unmarked) [Example 98, 2-(3-hydroxy-3-(4-hydroxyphenyl)propyl)-5-phenyloctahydrocyclopen-ta[c]pyrrol-5-ol], for which the IC50 on NR1/NR2B [1] (setting [3]) is 10 µM; at NR1/NR2B [2] (setting [4]), more than 10 µM.

Take `Cc1ccc(NC(=O)N2C[C@H]3C[C@@H](c4ccccc4)C[C@H]3C2)c(C)c1` [Example 110, N-(2,4-dimethylphenyl)-5-phenyl-octahydrocyclopenta[c] pyrrole-2-carboxamide]: the IC50 at NR1/NR2B [1] (setting [3]) was 10 µM; at NR1/NR2B [2] (setting [4]), more than 10 µM.

For the molecule `O=C(CN1C[C@@H]2C[C@@](O)(Cc3ccccc3)C[C@@H]2C1)c1cccc(-c2ccc(O)cc2)c1` [Example 275, 2-((3aR,5r,6aS)-5-benzyl-5-hydroxyhexahydrocyclo-penta[c]pyrrol-2(1H)-yl)-1-(4′-hydroxy-[1,1′-biphenyl]-3-yl)ethanone], the IC50 at NR1/NR2B [1] (setting [3]) was 10 µM; at NR1/NR2B [2] (setting [4]), more than 10 µM.

As for `O=C(CN1C[C@@H]2CC(O)(CCc3ccccc3)C[C@@H]2C1)c1ccc(-c2ccccc2)cc1` (some centres unmarked) [Example 269, 2-[5-hydroxy-5-(2-phenylethyl)-octahydrocyclopenta[c]pyrrol-2-yl]-1-(4-phenylphenyl)ethan-1-one], the IC50 is 10 µM on NR1/NR2B [1] (setting [3]) and more than 10 µM against NR1/NR2B [2] (setting [4]).

On to `O=C(Nc1ccc(O)cc1)N1C[C@H]2C[C@@H](c3ccccc3)C[C@H]2C1` [Example 100, N-(4-hydroxyphenyl)-5-phenyl-octahydrocyclopenta[c] pyrrole-2-carboxamide], for which the IC50 is 10 µM on NR1/NR2B [1] (setting [3]) and more than 10 µM against NR1/NR2B [2] (setting [4]).

As usually defined, the IC50 is the concentration needed to halve the response being measured.
